Measurements from ChEMBL document CHEMBL6087487, “Discovery of a 2'-α-Fluoro-2'-β-C-(fluoromethyl) Purine Nucleotide Prodrug as a Potential Oral Anti-SARS-CoV-2 Agent” (J Med Chem, 2025).
Active and inactive are the calls of the source. The calls are words filed in the database; no cut-off is given here.

What was measured:
[1] = tested on: Severe acute respiratory syndrome coronavirus 2; assay: Inhibition of SARS-CoV-2 central replication transcription complex of nsp12/nsp7/nsp8(2) using RNA template as substrate assessed as decrease in RdRp polymerization at 3 mM pretreated for 10 mins followed by NTP addition measured after 20 mins by RNA extension assay relative to control; settings: time 30.0 min
[2] = tested on: Severe acute respiratory syndrome coronavirus 2; assay: Inhibition of SARS-CoV-2 central replication transcription complex of nsp12/nsp7/nsp8(2) using RNA template as substrate assessed as decrease in RdRp polymerization at 62.5 to 1000 uM by RNA extension assay; settings: dose 62.5-1000 µM
[3] = Acute toxicity in Sprague-Dawley rat assessed as damage in liver at 500 to 2000 mg/kg, po measured for 14 days by H and E staining based analysis; type: organism-based; settings: in vivo, 336 h, dose 500-2000 mg/kg, time 14 day
[4] = Toxicity in K18-hACE2 transgenic mouse infected with SARS-CoV-2 Omicron BA.5 assessed as body weight change at 40 to 60 mg/kg compound administered 2 hrs post-infection and continued till 7 days post-infection; type: organism-based; settings: in vivo, 166 h, dose 40-60 mg/kg
[5] = Prodrug conversion in Sprague-Dawley rat assessed as half life of nucleoside triphosphate at 40 mg/kg, po measured after 0.5 to 24 hrs by LC-MS/MS analysis; type: ADME, organism-based; settings: in vivo, time 0.5-24 hrs
[6] = Acute toxicity in Sprague-Dawley rat assessed as body weight change at 500 to 2000 mg/kg, po measured for 14 days; type: organism-based; settings: in vivo, 336 h, dose 500-2000 mg/kg, time 14 day
[7] = Acute toxicity in Sprague-Dawley rat assessed as hematological change at 500 to 2000 mg/kg, po measured for 14 days; type: organism-based; settings: in vivo, 336 h, dose 500-2000 mg/kg, time 14 day
[8] = Acute toxicity in Sprague-Dawley rat assessed as blood biochemical change at 500 to 2000 mg/kg, po measured for 14 days; type: organism-based; settings: in vivo, 336 h, dose 500-2000 mg/kg, time 14 day
[9] = Acute toxicity in Sprague-Dawley rat assessed as damage in lung at 500 to 2000 mg/kg, po measured for 14 days by H and E staining based analysis; type: organism-based; settings: in vivo, 336 h, dose 500-2000 mg/kg, time 14 day
[10] = Prodrug conversion in Sprague-Dawley rat assessed as Cmax of nucleoside triphosphate at 40 mg/kg, po measured after 0.5 to 24 hrs by LC-MS/MS analysis; type: ADME, organism-based; settings: in vivo, time 0.5-24 hrs
[11] = Prodrug conversion in Sprague-Dawley rat assessed as AUC (0 to infinity) of nucleoside triphosphate at 40 mg/kg, po measured after 0.5 to 24 hrs by LC-MS/MS analysis; type: ADME, organism-based; settings: in vivo, time 0.5-24 hrs
[12] = Toxicity in K18-hACE2 transgenic mouse infected with SARS-CoV-2 Omicron BA.5 assessed as animal survival at 40 to 60 mg/kg compound administered 2 hrs post-infection and continued till 7 days post-infection; type: organism-based; settings: in vivo, 166 h, dose 40-60 mg/kg
[13] = Cytotoxicity against HPAEpiC cells incubated for 72 hrs by CCK8 assay; type: toxicity, cell-based; settings: human
[14] = Prodrug conversion in Sprague-Dawley rat assessed as AUClast of nucleoside triphosphate at 40 mg/kg, po measured after 0.5 to 24 hrs by LC-MS/MS analysis; type: ADME, organism-based; settings: in vivo, time 0.5-24 hrs
[15] = Acute toxicity in Sprague-Dawley rat assessed as animal mortality at 500 to 2000 mg/kg, po measured for 14 days; type: organism-based; settings: in vivo, 336 h, dose 500-2000 mg/kg, time 14 day
[16] = Toxicity in K18-hACE2 transgenic mouse infected with SARS-CoV-2 Omicron BA.5 assessed as animal survival at 20 mg/kg compound administered 2 hrs post-infection and continued till 7 days post-infection; type: organism-based; settings: in vivo, 166 h
[17] = Prodrug conversion in Sprague-Dawley rat assessed as Tmax of nucleoside triphosphate at 40 mg/kg, po measured after 0.5 to 24 hrs by LC-MS/MS analysis; type: ADME, organism-based; settings: in vivo, time 0.5-24 hrs
Vero C1008 = assay: Cytotoxicity against African green monkey Vero E6 cells at 100 uM incubated for 72 hrs by CCK8 assay; type: toxicity, cell-based; settings: chlorocebus sabaeus, vero c1008, 72 h
[18] = biological target: Nucleoprotein (Severe acute respiratory syndrome coronavirus 2) (UniProt P0DTC9); assay: Inhibition of SARS-CoV-2 N protein by Western blot analysis; settings: dose 1-250 nM
[19] = Acute toxicity in Sprague-Dawley rat assessed as damage in spleen at 500 to 2000 mg/kg, po measured for 14 days by H and E staining based analysis; type: organism-based; settings: in vivo, 336 h, dose 500-2000 mg/kg, time 14 day
SARS-CoV-2 = assay: Antiviral activity against SARS-CoV-2 Omicron BA.5 infected in K18-hACE2 transgenic mouse assessed as protection against viral infection compound administered 2 hrs post-infection and continued till 7 days post-infection; type: functional, organism-based; settings: Severe acute respiratory syndrome coronavirus 2, dose 20-60 mg/kg, time 166.0 hrs
[20] = Acute toxicity in Sprague-Dawley rat assessed as damage in kidney at 500 to 2000 mg/kg, po measured for 14 days by H and E staining based analysis; type: organism-based; settings: in vivo, 336 h, dose 500-2000 mg/kg, time 14 day
[21] = Acute toxicity in Sprague-Dawley rat assessed as drug tolerance upto 2000 mg/kg, po measured for 14 days; type: organism-based; settings: in vivo, 336 h, time 14 day
[22] = Acute toxicity in Sprague-Dawley rat assessed as damage in heart at 500 to 2000 mg/kg, po measured for 14 days by H and E staining based analysis; type: organism-based; settings: in vivo, 336 h, dose 500-2000 mg/kg, time 14 day
[23] = Acute toxicity in Sprague-Dawley rat assessed as side effects at 500 to 2000 mg/kg, po measured for 14 days; type: organism-based; settings: in vivo, 336 h, dose 500-2000 mg/kg, time 14 day
[24] = Cytotoxicity against African green monkey Vero E6 cells incubated for 72 hrs by CCK8 assay; type: toxicity, cell-based, Vero C1008; settings: chlorocebus sabaeus

Q: For `CNc1nc(N)nc2c1ncn2[C@@H]1O[C@H](COP(=O)(O)OP(=O)(O)OP(=O)(O)OP(=O)(O)O)[C@@H](O)[C@]1(F)CF`, which inhibition [1] is on record?
A: 100%

Q: And the inhibition [2]?
A: inactive

Q: For `CNc1nc(N)nc2c1ncn2[C@@H]1O[C@H](CO[P@@](=O)(N[C@@H](C)C(=O)OC(C)C)Oc2ccccc2)[C@@H](O)[C@]1(F)CF.O=S(=O)(O)O`, which Activity [3] is on record?
A: Non-toxic

Q: What about the Activity [4] of the same compound?
A: Non-toxic

Q: And the t1/2 [5]?
A: 45.7 h

Q: What about the Activity [6] of the same compound?
A: Non-toxic

Q: And the Activity [7]?
A: Non-toxic

Q: What about the Activity [8] of the same compound?
A: Non-toxic

Q: What about the Activity [9] of the same compound?
A: Non-toxic

Q: What about the Cmax [10] of the same compound?
A: 6.5 µg/g

Q: What about the AUC [11] of the same compound?
A: 223 µg·h/g

Q: What about the Survival [12] of the same compound?
A: 100%

Q: What about the CC50 at 72 h [13] of the same compound?
A: > 200 µM

Q: And the AUClast [14]?
A: 66.13 µg·h/g

Q: And the Activity [15]?
A: Non-toxic

Q: And the Survival [16]?
A: > 50%

Q: And the Tmax [17]?
A: 2.67 h

Q: What about the Activity (Vero C1008) of the same compound?
A: Non-toxic

Q: What about the inhibition [18] of the same compound?
A: Dose-dependent-effect

Q: What about the Activity [19] of the same compound?
A: Non-toxic

Q: What about the Activity (SARS-CoV-2) of the same compound?
A: Dose-dependent-effect

Q: And the Activity [20]?
A: Non-toxic

Q: And the Activity [21]?
A: Non-toxic

Q: What about the Activity [22] of the same compound?
A: Non-toxic

Q: What about the Activity [23] of the same compound?
A: Non-toxic

Q: With `CCC(CC)COC(=O)[C@H](C)N[P@](=O)(OC[C@H]1O[C@@](C#N)(c2ccc3c(N)ncnn23)[C@H](O)[C@@H]1O)Oc1ccccc1` [REMDESIVIR] as the compound, how does the CC50 at 72 h [24] read?
A: 42 µM
